In US20230113037A1 (Bayer Aktiengesellschaft, priority 2019, published 2023):
pIC50: −log10 of the molar value. Read-outs that look alike come from different tables or passages of the source.

Molecular target: T1, AHR (Mus musculus, UniProt P30561)
T1 sequence (P30561 1-848 P471L/N533S/M589L): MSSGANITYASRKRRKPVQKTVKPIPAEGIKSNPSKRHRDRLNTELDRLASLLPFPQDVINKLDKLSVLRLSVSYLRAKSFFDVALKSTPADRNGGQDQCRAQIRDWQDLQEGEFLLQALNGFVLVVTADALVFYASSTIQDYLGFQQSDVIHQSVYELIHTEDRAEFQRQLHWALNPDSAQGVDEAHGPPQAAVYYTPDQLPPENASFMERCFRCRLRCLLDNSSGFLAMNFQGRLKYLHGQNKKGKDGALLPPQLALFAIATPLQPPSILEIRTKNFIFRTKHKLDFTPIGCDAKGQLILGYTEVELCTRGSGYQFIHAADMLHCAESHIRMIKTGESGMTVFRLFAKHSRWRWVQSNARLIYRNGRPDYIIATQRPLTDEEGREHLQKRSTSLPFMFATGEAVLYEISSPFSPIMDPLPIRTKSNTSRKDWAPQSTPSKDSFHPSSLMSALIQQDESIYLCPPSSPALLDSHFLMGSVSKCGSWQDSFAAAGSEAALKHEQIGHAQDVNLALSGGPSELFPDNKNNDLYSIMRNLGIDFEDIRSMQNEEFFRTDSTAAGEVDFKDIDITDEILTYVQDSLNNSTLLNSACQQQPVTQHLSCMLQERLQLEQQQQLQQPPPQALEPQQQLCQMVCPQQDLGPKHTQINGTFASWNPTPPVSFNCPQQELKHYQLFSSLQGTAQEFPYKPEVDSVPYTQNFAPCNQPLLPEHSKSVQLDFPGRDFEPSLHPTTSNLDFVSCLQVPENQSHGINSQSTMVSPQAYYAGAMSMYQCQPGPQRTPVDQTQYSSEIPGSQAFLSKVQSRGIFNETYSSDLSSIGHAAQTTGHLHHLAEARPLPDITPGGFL
Assay: In vitro assay 3: antagonism in mouse cell line (AHR transactivation, firefly luciferase reporter, kynurenic acid prestimulated)
Assay type: cell-based
Details: 200 μM kynurenic acid, 20 hours, read-out: AHR Antagonism Mouse IC50
Experimental: Examples were tested in selected biological assays one or more times. When tested more than once, data are reported as either average values or as median values, wherein • the average value, also referred to as the arithmetic mean value, represents the sum of the values obtained divided by the number of times tested, and • the median value represents the middle number of the group of values when ranked in ascending or descending order. If the number of values in the data set is odd, the median is the middle value. If the number of values in the data set is even, the median is the arithmetic mean of the two middle values.
In addition the cells were stably transfected with an AHR inducible firefly luciferase reporter gene construct that carried AHR-binding sites (DRE) in its promoter. Kynurenic acid is an endogenous AHR activating ligand and was used to prestimulate test cells prior to testing the antagonistic properties of compounds.
As positive inhibition control cells without addition of kynurenic acid were incubated. Normalization was done by positive and negative controls.
Firefly luciferase activity was determined by the SteadyGlo Luciferase Assay System (Promega, #E2550).

[1] = Hepa 1c1c7 cells, firefly luciferase reporter

Structure (SMILES) | pIC50 (mouse Hepa 1c1c7 cells) | pIC50 [1]
CCCNC(=O)[C@@H](C)Nc1nc2ccccc2c2nc(-c3cc(Cl)ccc3OC(F)(F)F)nn12 [Example 502, N^2-{2-[5-chloro-2-(trifluoromethoxy)phenyl][1,2,4]triazolo[1,5-c]quinazolin-5-yl}-N-propyl-D-alaninamide] | 6.71 | 
CN1CC[C@@H](Nc2nc3ccccc3c3nc(-c4ccc(OC(F)(F)F)cc4)nn23)C1=O [Example 328, (3R)-1-methyl-3-({2-[4-(trifluoromethoxy)phenyl][1,2,4]triazolo[1,5-c]quinazolin-5-yl}amino)pyrrolidin-2-one] | 7.71 | 
N#Cc1ccc(-c2nc3c4cccc(C(F)(F)F)c4nc(N[C@@H]4CCCCNC4=O)n3n2)cc1 [Example 671, 4-[5-{[(3R)-2-oxoazepan-3-yl]amino}-7-(trifluoromethyl)[1,2,4]triazolo[1,5-c]quinazolin-2-yl]benzonitrile] | 9.13 | 
CC[C@H](Nc1nc2ccccc2c2nc(-c3ccccc3OC(F)(F)F)nn12)C(N)=O [Example 462, (2S)-2-({2-[2-(trifluoromethoxy)phenyl][1,2,4]triazolo[1,5-c]quinazolin-5-yl}amino)butanamide] | 7.09 | 
O=C1NCCNCC1Nc1nc2cccc(Br)c2c2nc(-c3ccc(F)cc3)nn12 (centres unmarked) [Example 282, 6-{[10-bromo-2-(4-fluorophenyl)[1,2,4]triazolo[1,5-c]quinazolin-5-yl]amino}-1,4-diazepan-5-one] | 7.57 | 
O=C1NCCCC[C@H]1Nc1nc2c(Br)cc(Br)cc2c2nc(-c3ccc(F)cc3)nn12 [Example 591, (3R)-3-{[7,9-dibromo-2-(4-fluorophenyl)[1,2,4]triazolo[1,5-c]quinazolin-5-yl]amino}azepan-2-one] | 5.62 | 
O=C1NCCCC[C@H]1Nc1nc2ccccc2c2nc(-c3cc(Cl)ccc3OC(F)(F)F)nn12 [Example 497, (3R)-3-({2-[5-chloro-2-(trifluoromethoxy)phenyl][1,2,4]triazolo[1,5-c]quinazolin-5-yl}amino)azepan-2-one] | 7.24 | 
O=C1NCCNC[C@H]1Nc1nc2c(Br)cccc2c2nc(-c3ccc(F)cc3)nn12 [Example 269, (6R)-6-{[7-bromo-2-(4-fluorophenyl)[1,2,4]triazolo[1,5-c]quinazolin-5-yl]amino}-1,4-diazepan-5-one] | 8.92 | 
O=C1NCCNC[C@H]1Nc1nc2ccccc2c2nc(-c3cnn(CCO)c3)nn12 [Example 414, (6R)-5-({2-[1-(2-hydroxyethyl)-1H-pyrazol-4-yl][1,2,4]triazolo[1,5-c]quinazolin-5-yl}amino)-1,4-diazepan-5-one] | < 4.70 | 
Cn1cc(-c2nc3c4cccc(C(F)(F)F)c4nc(NC4C(=O)NCC4(C)C)n3n2)cn1 (single isomer, unassigned; (+)) [Example 730, (+)-4,4-dimethyl-3-{[2-(1-methyl-1H-pyrazol-4-yl)-7-(trifluoromethyl)[1,2,4]triazolo[1,5-c]quinazolin-5-yl]amino}pyrrolidin-2-one] | < 4.70 | 
O=C1NCCNCC1Nc1nc2cccc(Cl)c2c2nc(-c3ccc(F)cc3)nn12 (single isomer, unassigned) [Example 299, 6-{[10-chloro-2-(4-fluorophenyl)[1,2,4]triazolo[1,5-c]quinazolin-5-yl]amino}-1,4-diazepan-5-one] | 7.43 | 
COc1ccc(-c2nc3c4c(Cl)cccc4nc(NC4CNCCNC4=O)n3n2)cc1 (single isomer, unassigned) [Example 297, 6-{[10-chloro-2-(4-methoxyphenyl)[1,2,4]triazolo[1,5-c]quinazolin-5-yl]amino}-1,4-diazepan-5-one] | 7.60 | 
COc1ccc(-c2nc3c4ccccc4nc(N[C@@H](CCCCNC(=O)OC(C)(C)C)C(N)=O)n3n2)cc1 [Example 25, tert-butyl [(5S)-6-amino-5-{[2-(4-methoxyphenyl)[1,2,4]triazolo[1,5-c]quinazolin-5-yl]amino}-6-oxohexyl]carbamate] | 6.31 | 
O=C1NCCNC[C@H]1Nc1nc2c(Br)cccc2c2nc(-c3ccc(Cl)cc3)nn12 [Example 977, (6R)-6-{[7-bromo-2-(4-chlorophenyl)[1,2,4]triazolo[1,5-c]quinazolin-5-yl]amino}-1,4-diazepan-5-one] |  | 9.39
COc1cccc(-c2nc3c4ccccc4nc(NC(C)(C)C(N)=O)n3n2)c1 [Example 98, N^2-[2-(3-methoxyphenyl)[1,2,4]triazolo[1,5-c]quinazolin-5-yl]-2-methylalaninamide] | 5.94 | 
O=C1NCCNC[C@@H]1Nc1nc2c(Br)cccc2c2nc(-c3ccc(F)cc3)nn12 [Example 973, (6S)-6-{[7-bromo-2-(4-fluorophenyl)[1,2,4]triazolo[1,5-c]quinazolin-5-yl]amino}-1,4-diazepan-5-one] |  | 8.08

Results, then the compound that gave them:

pIC50 (mouse Hepa 1c1c7 cells) | pIC50 [1] | Structure (SMILES)
7.36 |  | COc1ccc(-c2nc3c4cccc(C(F)(F)F)c4nc(N[C@H]4CCCCNC4=O)n3n2)cc1 [Example 582, (3S)-3-{[2-(4-methoxyphenyl)-7-(trifluoromethyl)[1,2,4]triazolo[1,5-c]quinazolin-5-yl]amino}azepan-2-one]
8.30 |  | O=C1NCCCC[C@@H]1Nc1nc2c(Br)cccc2c2nc(-c3ccc(F)cc3)nn12 [Example 210, (3S)-3-{[7-bromo-2-(4-fluorophenyl)[1,2,4]triazolo[1,5-c]quinazolin-5-yl]amino}azepan-2-one]
8.91 |  | COc1ccc(-c2nc3c4cccc(Br)c4nc(N[C@@H]4CCCCNC4=O)n3n2)cc1 [Example 215, (3R)-3-{[7-bromo-2-(4-methoxyphenyl)[1,2,4]triazolo[1,5-c]quinazolin-5-yl]amino}azepan-2-one]
8.01 |  | COc1ccc(-c2nc3c4ccccc4nc(N[C@H]4CCCCNC4=O)n3n2)cc1 [Example 30, (3S)-3-{[2-(4-methoxyphenyl)[1,2,4]triazolo[1,5-c]quinazolin-5-yl]amino}azepan-2-one]
8.59 |  | O=C1NCCCC[C@H]1Nc1nc2cccc(Br)c2c2nc(-c3ccc(F)cc3)nn12 [Example 166, (3R)-3-{[10-bromo-2-(4-fluorophenyl)[1,2,4]triazolo[1,5-c]quinazolin-5-yl]amino}azepan-2-one]
7.34 |  | COc1cccc(-c2nc3c4cc(C)ccc4nc(NC4CCCNC4=O)n3n2)c1 (centres unmarked) [Example 157, 3-{[2-(3-methoxyphenyl)-9-methyl[1,2,4]triazolo[1,5-c]quinazolin-5-yl]amino}piperidin-2-one]
7.62 |  | COc1ccc(-c2nc3c4ccccc4nc(NC4CNCCNC4=O)n3n2)cc1 (centres unmarked) [Example 34, 6-{[2-(4-methoxyphenyl)[1,2,4]triazolo[1,5-c]quinazolin-5-yl]amino}-1,4-diazepan-5-one]
7.78 |  | COc1ccc(-c2nc3c4cccc(Br)c4nc(N[C@H]4CCCCNC4=O)n3n2)cc1 [Example 211, (3S)-3-{[7-bromo-2-(4-methoxyphenyl)[1,2,4]triazolo[1,5-c]quinazolin-5-yl]amino}azepan-2-one]
7.63 |  | COc1ccc(-c2nc3c4c(Br)cccc4nc(N[C@@H]4CNCCNC4=O)n3n2)cc1 (stereo in doubt) [Example 281, 6-{[10-bromo-2-(4-methoxyphenyl)[1,2,4]triazolo[1,5-c]quinazolin-5-yl]amino}-1,4-diazepan-5-one]
8.41 |  | O=C1NCCCC[C@@H]1Nc1nc2ccccc2c2nc(-c3ccc(F)cc3)nn12 [Example 71, (3S)-3-{[2-(4-fluorophenyl)[1,2,4]triazolo[1,5-c]quinazolin-5-yl]amino}azepan-2-one]
8.82 |  | O=C1NCCC[C@H]1Nc1nc2c(Br)cccc2c2nc(-c3ccc(F)cc3)nn12 [Example 226, (3R)-3-{[7-bromo-2-(4-fluorophenyl)[1,2,4]triazolo[1,5-c]quinazolin-5-yl]amino}piperidin-2-one]
 | 7.28 | COc1ccc(-c2nc3c4cccc(C)c4nc(N[C@H]4CNCCNC4=O)n3n2)cc1 [Example 970, (6S)-6-{[2-(4-methoxyphenyl)-7-methyl[1,2,4]triazolo[1,5-c]quinazolin-5-yl]amino}-1,4-diazepan-5-one]
9.23 |  | O=C1NCCCC[C@H]1Nc1nc2cccc(Cl)c2c2nc(-c3ccc(F)cc3)nn12 [Example 170, (3R)-3-{[10-chloro-2-(4-fluorophenyl)[1,2,4]triazolo[1,5-c]quinazolin-5-yl]amino}azepan-2-one]
